# In patent publication US5104870A, “Heterocyclic pharmaceutical compounds and use” (Burroughs Wellcome Co., priority 1989, dated 1992):
# Where a name gives a salt, the structure may show the parent alone.
# Test system: tetrabenazine-induced sedation
# Assay: Antitetrabenazine test (prevention of tetrabenazine-induced sedation)
# Format: in vivo
# Conditions: Mus musculus, ip; CDl male mice; i.p. as hydrochloride salt in saline 30 min before tetrabenazine hydrochloride 35 mg/kg i.p.; exploratory behavior scored 30 min later; read-out: ED50 (amount of the test compound required to reverse the tetrabenazine effects in 50 percent of the animals tested)
# Procedure: Prevention on of tetrabenazine-induced sedation was measured using a modification of the method of Vernier et al., First Hahnemann Symposium on Psychosomatic Medicine, ed. Nodim and Moyer, pub Lea and Febiger, Philadelphia. 1962.
# Mice, groups of 12 CDl males each, were injected intraperitoneally (i.p.) with the hydrochloride salt of a compound of formula (I) in physiological saline solution or with physiological saline solution alone. Thirty minutes later each of the mice was injected (i.p.. 35 mg/kg) with a solution of tetrabenazine hydrochloride. Thirty minutes after the injection of tetrabenazine each mouse was examined for its level of exploratory behavior which was scored on a modification of the arbitrary scale defined by Vernier et al The result reported in Table I as the ED50 value is the amount of the test compound required to reverse the tetrabenazine effects in 50 percent of the animals tested.
row,SMILES,ED50 [mg/kg]
1,"C[C@H]1CO[C@](O)(c2cc(F)cc(F)c2)[C@@H](C)N1.Cl (relative stereo) [Example 1, (+-)-(2R*,3R*,5S*)-2-(3,5-Difluorophenyl)-3,5-dimethyl-2-morpholinol hydrochloride]",2
2,"C[C@@H]1CO[C@@](O)(c2cc(F)cc(F)c2)[C@H](C)N1C (relative stereo) [Example 4, (+-)-(2R*,3R*,5S*)-2-(3,5-Difluorophenyl)-3,4,5,trimethyl-2-morpholinol hydrochloride]",3
3,"C[C@@H]1CO[C@@](O)(c2cc(F)cc(F)c2)[C@H](C)N1.Cl [Example 2, (2S,3S,5R)-2-(3,5-difluorophenyl)-3,5-dimethyl-2-morpholinol hydrochloride]",5
4,"C[C@@H]1CO[C@@](O)(c2cc(F)cc(F)c2)[C@H](C)N1C [Example 3, (2S,3S,5R)-2-(3.5.Difluorophenyl)-3,4,5,trimethyl-2-morpholinol hydrochloride, one-quarter hydrate]",0.6
5,"CCN1[C@H](C)CO[C@@](O)(c2cc(F)cc(F)c2)[C@@H]1C [Example 5, (2S,3S,5R)-2-(3,5-Difluorophenyl)-4-ethyl-3,5-dimethyl-2-morpholinol hydrochloride, monohydrate]",3
